Source: US5843916A, “Cyclic amp analogues, individually and in pairs, to inhibit neoplastic cell growth” (priority 1994, dated 1998)
“Also recorded” adds a separate entry of the source. Like-named read-outs stand apart in the source and are kept apart here.

How the values were obtained:
[1] = tested on: LS-174T human colon carcinoma cells; experiment: Additive growth inhibition with 8-Cl-cAMP (Table 19); format: cell-based
Method: The medium was changed every 48 hours.
At desired times, cell counts were performed in duplicate on a Coulter Counter after harvesting cells with gentle trypsinization.
The analogues were added at 24

[2] = tested on: HL-60 human leukemia cells; experiment: Growth inhibition of HL-60 leukemia cells (Example 3, Table 16); format: cell-based; conditions: for IC50: Homo sapiens; for fold less potent than 8-Cl-cAMP: growth inhibition HL-60, day 6
Method: HL-60 leukemic cells were obtained from the American Type Culture Collection (Rockville, Md.) and were grown in suspension culture in RPMI 1640 supplemented with 10% heat-inactivated fetal bovine serum, streptomycin (500 μg/ml), penicillin (50 units/ml), and glutamine (1 mM) (Gibco, Grand Island, N.Y.).
Cell counts were performed at desired times on a Coulter Counter.
The IC50 values were determined from the dose-
represent an average value obtained for each analogue
from two or more separate experiments carried out from 3
days or 6 days. Initial cell number, 1 × 10^5 /dish.
Typical numbers of untreated control cells at day 3 and
viability in treated and control cells.

[3] = target: T1, RII, regulatory subunit of cAMP-dependent protein kinase type II (Bos taurus, UniProt P00515); experiment: Binding affinity for RII (Table 14)
T1 construct: from tissue
T1 sequence (P00515 whole entry): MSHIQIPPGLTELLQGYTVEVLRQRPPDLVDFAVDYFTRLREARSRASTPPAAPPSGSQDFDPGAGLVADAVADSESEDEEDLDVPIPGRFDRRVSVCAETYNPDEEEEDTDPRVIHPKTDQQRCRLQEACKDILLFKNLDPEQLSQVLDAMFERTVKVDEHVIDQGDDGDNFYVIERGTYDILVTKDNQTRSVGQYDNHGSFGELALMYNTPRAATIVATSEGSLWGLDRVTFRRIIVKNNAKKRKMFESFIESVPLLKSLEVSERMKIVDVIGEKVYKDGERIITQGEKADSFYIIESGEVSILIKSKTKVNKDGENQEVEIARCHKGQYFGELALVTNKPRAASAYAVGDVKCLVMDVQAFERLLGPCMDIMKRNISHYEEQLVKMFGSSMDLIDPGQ
Method: (§1) RI and RII are the regulatory subunits of cAMP-dependent protein
(§2) kinase type I and type II, respectively. Site A (Site 2) and Site B
(§3) (RI and RII): the affinities of analogues for Site A and Site B were
(§4) determined by the measurement of kinetic constants (inhibition constant,
(§5) Ki), and the values are expressed as the relative affinity Ki
(§6) (analogue), i.e., the ratio between the apparent inhibition constant for
(§7) cAMP and the analogue, as described in Ogreid et al., Eur. J. Biochem.

[4] = tested on: LS-174T human colon carcinoma cells; experiment: Growth inhibition of LS-174T cells (Example 4, Table 18); format: cell-based
Method: LS-174T human colon carcinoma cells were obtained from the National Cancer Institute, Division of Cancer Treatment, Bethesda, Md., and were grown in Eagle's minimum essential medium supplemented with 10% heat-inactivated fetal bovine serum, Eagle's minimum essential medium nonessential amino acids, 20 mM 4-(2-hydroxyethyl)-1-piperazineethanesulfonic acid, 2mM glutamine, and penicillin-streptomycin (Gibco). The medium was changed every 48 hours.
LS-174T cells were seeded at a density of 2×10^5 / 60 mm dish. […] At desired times, cell counts were performed in duplicate on a Coulter Counter after harvesting cells with gentle trypsinization.
The percentage growth inhibition values shown at 10
and 50 μM analogue concentrations were determined from
the dose-response curve experiments like those shown in
FIG. 1 and represent an average value obtained for each
analogue from two or more separate experiments. Sp-6-SET-

[5] = target: T2, RI, regulatory subunit of cAMP-dependent protein kinase type I (Oryctolagus cuniculus, UniProt G1TDN4); experiment: Binding affinity for RI (Table 14)
T2 construct: from tissue
T2 sequence (G1TDN4 1-381): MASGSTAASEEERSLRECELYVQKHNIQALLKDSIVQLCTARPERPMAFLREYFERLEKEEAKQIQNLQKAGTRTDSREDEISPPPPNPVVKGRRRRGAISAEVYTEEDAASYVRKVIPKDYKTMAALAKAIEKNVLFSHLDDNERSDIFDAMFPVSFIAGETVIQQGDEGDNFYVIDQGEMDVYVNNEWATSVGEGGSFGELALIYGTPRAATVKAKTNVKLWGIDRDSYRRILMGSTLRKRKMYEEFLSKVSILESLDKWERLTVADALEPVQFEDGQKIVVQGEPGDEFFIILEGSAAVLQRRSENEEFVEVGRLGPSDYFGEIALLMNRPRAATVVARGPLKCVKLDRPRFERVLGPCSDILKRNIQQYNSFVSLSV
Method: as §1, §2, §3, §4, §5, §6, §7

[6] = tested on: RI, regulatory subunit of cAMP-dependent protein kinase type I; experiment: Binding affinity for RI (Table 14); conditions: compared with 8-Cl-cAMP
Method: as §1, §2, §3, §4, §5, §6, §7

[7] = target: T3, Protein kinase type II (cAKII) (Bos taurus, UniProt P00515); experiment: Protein kinase activation (Table 15); format: biochemical, bovine (heart); conditions: half-maximum activation; U. M.: unmeasurable
T3 construct: prepared from rabbit skeletal muscle and bovine heart; from tissue; host or cells: bovine heart
T3 sequence (P00515 2-401 limits assumed): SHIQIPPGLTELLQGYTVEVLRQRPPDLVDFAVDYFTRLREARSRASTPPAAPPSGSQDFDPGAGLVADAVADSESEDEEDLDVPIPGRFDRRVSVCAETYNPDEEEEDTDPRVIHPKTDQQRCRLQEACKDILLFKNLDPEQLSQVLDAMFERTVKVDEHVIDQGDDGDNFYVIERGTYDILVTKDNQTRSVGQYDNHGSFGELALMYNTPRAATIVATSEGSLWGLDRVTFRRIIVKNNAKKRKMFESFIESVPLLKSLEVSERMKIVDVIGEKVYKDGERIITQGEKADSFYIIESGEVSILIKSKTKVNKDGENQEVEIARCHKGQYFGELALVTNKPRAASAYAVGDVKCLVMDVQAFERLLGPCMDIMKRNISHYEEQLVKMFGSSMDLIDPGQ
Method: (§8) ATP to Kemptide as described by Ogreid et al., Eur. J. Biochem. 150: 219-227 (1985).
(§9) Protein kinases types I (cAKI) and II (cAKII) were
(§10) prepared from rabbit skeletal muscle and bovine heart,
(§11) respectively, as described in D.o slashed.skeland et al. (J. Biol.
(§12) of the protein kinase in Ogreid et al. (Eur. J. Biochem.

HL-60 Cells = experiment: Cell cycle kinetics of HL-60 cells (Table 17); format: cell-based, human; conditions: for % G2 M: control 8.3; for % G0-G1: control 45.7; for % S: control 46
Method: (§13) Briefly, cells were fixed in 70% ethanol and stored at 4° C. before analysis. Nuclear DNA was stained with propidium iodide, 50 μg/ml in phosphate-buffered saline (pH 7.4), for 30 minutes at room temperature. RNase was added to avoid double-helix RNA staining. The DNA content of cells was analyzed by a FACScan flow cytometer coupled with a Hewlett-Packard computer. Cell cycle data analysis was performed by a Cell-FIT program according to the method of Dean (Cell Tissue Kinet. 13: 299-308 (1980)) (Becton Dickinson Immunocytometry Systems). Pulse area versus pulse width gating was performed to exclude doublets from the G2 -M region. For each sample, 20,000 events were stored in list mode. Cell surface antigen analysis was performed by flow cytometry with FACScan using a panel of monoclonal antibodies reactive with either monocytic or myeloid cells.

HL-60 leukemia cells = experiment: Surface antigen expression of HL-60 cells (Example 5); format: cell-based, human; conditions: Homo sapiens, HL-60, 72 h
Method: as §13
The effect of Rp- and Sp-8-Cl-cAMPS on the expression of differentiation markers in HL-60 cells was examined to determine if the growth-arrested HL-60 cells are more differentiated than untreated cells. […] For each sample, 2×10^4 cells were analyzed. Cell surface antigen analysis was performed by flow cytometry with FACScan. Cell gating was performed using forward and side scatter.

[8] = tested on: cAMP-phosphodiesterase (PDE); conditions: no test described; cited from earlier work
[9] = target: T4, Protein kinase type I (cAKI) (Oryctolagus cuniculus, UniProt G1TDN4); experiment: Protein kinase activation (Table 15); format: biochemical, rabbit (skeletal muscle); conditions: half-maximum activation; U. M.: unmeasurable
T4 construct: prepared from rabbit skeletal muscle and bovine heart; from tissue; host or cells: rabbit skeletal muscle
T4 sequence (G1TDN4 1-381): as the sequence (G1TDN4 1-381) above
Method: as §8, §9, §10, §11, §12

Nc1ncnc2c1nc(Cl)n2[C@@H]1O[C@@H]2CO[P@@](O)(=S)O[C@H]2[C@H]1O [Rp-8-Cl-cAMPS, Rp-(equatorial exocyclic sulfursubstitution) 8-chloro-adenosine 3': 5'-monophosphorothioate]
inhibition at 5 µM ([1]; Homo sapiens, LS174T, 96 h, 5 μM, 4 days): 34% | inhibition at 10 µM ([1]; Homo sapiens, LS174T, 96 h, 10 μM, 4 days): 48% | inhibition at 200 µM ([1]; Homo sapiens, LS174T, 96 h, 200 μM, 4 days): 80% | effect on growth-inhibitory effect of 8-Cl-cAMP ([1]; with 8-Cl-cAMP): additive effect | growth inhibitory potency ([2]; HL-60): less inhibitory than 8-Cl-cAMP but was more potent than Sp-8-Cl-cAMPS | IC50 ([2]; HL-60, 72 h, read-out: Growth inhibition (IC50), Day 3): 16 µM | IC50 ([2]; HL-60, 144 h, read-out: Growth inhibition (IC50), Day 6): 3 µM | fold less potent than 8-Cl-cAMP [2]: about 10 fold | fold less potent than 8-Cl-cAMP ([2]; listed as Rp-phosphorothioate of 8-Cl-cAMP): 10 fold | growth inhibitory effect greater than that of Sp-8-Cl-cAMPS ([2]; vs Sp-8-Cl-cAMPS): 3 fold | relative affinity Ki (cAMP)/Ki (analogue), RII Site A ([3]; Site A (Site 2)): 0.00028 | relative affinity Ki (cAMP)/Ki (analogue), RII Site B ([3]; Site B (Site 1)): 0.44 | decrease in affinity for Site A of RII vs corresponding cyclophosphate ([3]; vs cyclophosphate): 180 fold | decrease in affinity for Site B of RII vs corresponding cyclophosphate ([3]; vs cyclophosphate): 10 fold | inhibition at 10 µM ([4]; Homo sapiens, LS174T): 48% | inhibition at 50 µM ([4]; Homo sapiens, LS174T): 70% | growth inhibitory potency ([4]; LS-174T): greatest inhibition of cell growth | relative affinity Ki (cAMP)/Ki (analogue), RI Site A ([5]; Site A (Site 2)): 0.0079 | relative affinity Ki (cAMP)/Ki (analogue), RI Site B ([5]; Site B (Site 1)): 0.0042 | decrease in affinity for Site A of RI vs corresponding cyclophosphate ([5]; vs cyclophosphate): 340 fold | decrease in affinity for Site B of RI vs corresponding cyclophosphate ([5]; vs cyclophosphate): 480 fold | affinity for cAMP receptor protein / protein kinase [6]: reduced affinity for the cAMP receptor protein | Activation Constant (Ka), cAKII [7]: U. M. | % G2 M (HL-60 Cells; 10 μM, 96 hours): 9.8% | % G0-G1 (HL-60 Cells; 10 μM, 96 hours): 43.5% | % S (HL-60 Cells; 10 μM, 96 hours): 46.7% | % G2 M (HL-60 Cells; 50 μM, 96 hours): 9.0% | % G0-G1 (HL-60 Cells; 50 μM, 96 hours): 41.6% | % S (HL-60 Cells; 50 μM, 96 hours): 49.4% | % G2 M (HL-60 Cells; 100 μM, 96 hours): 10.9% | % G0-G1 (HL-60 Cells; 100 μM, 96 hours): 37.9% | % S (HL-60 Cells; 100 μM, 96 hours): 51.2% | toxic effect (HL-60 Cells; 100 μM, 96 hours, footnote b): Toxic effect | cell cycle phase distribution (HL-60 Cells; HL-60, 96 hours in Table 17): not appreciably different; also recorded: did not bring about any change in cell cycle phase | viability at 50 µM (HL-60 leukemia cells; read-out: cell viability): 90% | fold induction at 50 µM (HL-60 leukemia cells; read-out: increase of HLA-DR over control): 2 | fold induction at 50 µM (HL-60 leukemia cells; read-out: increase of Leu-15 over control): 3 | hydrolysis by phosphodiesterase [8]: resistant to hydrolysis | Activation Constant (Ka), cAKI [9]: U. M.
